Holding throughout (assay type): biochemical
In test [1] the target is T1, Escherichia coli malate dehydrogenase Ec-Mdh variant R81A 112V, SEQ ID No. 115 (Escherichia coli, UniProt P61889, I12V/R81A).
T1 sequence (P61889 1-312 I12V/R81A): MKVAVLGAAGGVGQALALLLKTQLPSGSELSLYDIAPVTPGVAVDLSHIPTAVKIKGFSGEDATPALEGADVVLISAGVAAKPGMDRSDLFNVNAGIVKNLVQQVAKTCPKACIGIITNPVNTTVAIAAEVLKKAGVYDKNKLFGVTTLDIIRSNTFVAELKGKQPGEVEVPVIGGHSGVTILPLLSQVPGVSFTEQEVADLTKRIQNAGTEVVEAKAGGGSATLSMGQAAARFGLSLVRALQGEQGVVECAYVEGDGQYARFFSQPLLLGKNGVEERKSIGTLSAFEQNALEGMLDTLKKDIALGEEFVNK
Put plainly: OHB/oxaloacetate reductase assay, Ec-Mdh R81A 112V. Conditions: pH 7, 37° C. The method, then: (§1) Enzymatic assays: The reaction mixture contained 60 mM Hepes (pH 7), 50 mM potassium chloride, 5 mM MgCl2, 0.25 mM NADH, (optionally 5 mM fructose-1,6-bisphosphate) (all products from Sigma), and appropriate amounts of purified malate or lactate dehydrogenase or cell extract. Reactions were started by adding appropriate amounts of 2-oxo-4-hydroxybutyrate (OHB), pyruvate, or oxaloacetate (OAA). Enzymatic assays were carried out at 37° C. in 96-well flat bottomed microtiter plates in a final volume of 250 μL. The reactions were followed by the characteristic absorption of NADH at 340 nm (εNADH=6.22 mM^−1 cm^−1) in a microplate reader (BioRad 680XR).
(§2) Site-directed mutagenesis of the mdh gene from E. coli was carried out as described in Example 2 using the primers listed in Table 5. Plasmid pET28-Ec-mdh was used as the template.
(§3) Mutant enzymes were expressed, purified and tested for OHB and oxaloacetate reductase activity as described in Example 1. […] The mutation R81A in Ec-Mdh was combined with additional changes in the protein sequence.

The target in test [2] is T2, Escherichia coli malate dehydrogenase Ec-Mdh variant R81A D86S, SEQ ID No. 1114 (Escherichia coli, UniProt P61889, D86S/R81A).
T2 sequence (P61889 1-312 R81A/D86S): T1 sequence (P61889 1-312 I12V/R81A) with V12I, D86S
Put plainly: OHB/oxaloacetate reductase assay, Ec-Mdh R81A D86S. Conditions: pH 7, 37° C. How it is done: as §1, §2, §3

Test [3] has as its target T3, Escherichia coli malate dehydrogenase Ec-Mdh variant R81A M85E I12V, SEQ ID No. 110 (Escherichia coli, UniProt P61889, I12V/M85E/R81A).
T3 sequence (P61889 1-312 I12V/R81A/M85E): T1 sequence (P61889 1-312 I12V/R81A) with M85E
Put plainly: OHB/oxaloacetate reductase assay, Ec-Mdh R81A M85E I12V. As to conditions: pH 7, 37° C. The method, then: as §1, §2, §3

Test [4] deals with T4, Escherichia coli malate dehydrogenase Ec-Mdh variant R81A G179D, SEQ ID No. 112 (Escherichia coli, UniProt P61889, G179D/R81A).
T4 sequence (P61889 1-312 R81A/G179D): T1 sequence (P61889 1-312 I12V/R81A) with V12I, G179D
As to the kind of experiment: OHB/oxaloacetate reductase assay, Ec-Mdh R81A G179D. As to conditions: pH 7, 37° C. How it is done:
as §1, §2, §3

Test [5] addresses T5, Escherichia coli malate dehydrogenase Ec-Mdh variant R81A M85E, SEQ ID No. 106 (Escherichia coli, UniProt P61889, M85E/R81A).
T5 sequence (P61889 1-312 R81A/M85E): T1 sequence (P61889 1-312 I12V/R81A) with V12I, M85E
Put plainly: OHB/oxaloacetate reductase assay, Ec-Mdh R81A M85E. Conditions: pH 7, 37° C. How it is done: as §1, §2, §3

Test [6] has as its target T6, Escherichia coli (L)-malate dehydrogenase Ec-Mdh, wild type, SEQ ID NO: 2 (Escherichia coli, UniProt P61889).
T6 construct: made in house; host or cells: E. coli BL21 (DE3) star
T6 sequence (P61889 1-312): T1 sequence (P61889 1-312 I12V/R81A) with V12I, A81R
Put plainly: OHB/oxaloacetate reductase assay (NADH oxidation at 340 nm), Ec-Mdh wild type. As to conditions: Table 6; up to 50 mM OHB; pH 7, 37° C., 0.25 mM NADH. An excerpt:
The genes coding for (L)-malate dehydrogenase in Escherichia coli, Ec-mdh (SEQ ID NO: 1), (D)-lactate dehydrogenase in E. coli, Ec-ldhA (SEQ ID NO: 3), (L)-lactate dehydrogenase of Lactococcus lactis, Ll-ldhA (SEQ ID NO: 5), (L)-lactate dehydrogenase of Bacillus subtilis, Bs-ldh (SEQ ID NO: 7), (L)-lactate dehydrogenase of Geobacillus stearothermophilus, Gs-ldh (SEQ ID NO: 9), the two isoforms of the (L)-lactate dehydrogenase of Oryctalagus cuniculus, Oc-ldhA (SEQ ID NO: 11 and SEQ ID NO: 13), were amplified by PCR using the high-fidelity polymerase Phusion™ (Fermentas) and the primers listed in Table 1. Genomic DNAs of E. coli MG1655, L. lactis IL1403, and B. subtilis strain 168 were used as the template. The genes Oc-ldhA, and Gs-ldh were codon-optimized for expression in E. coli and synthesized by MWG Eurofins. The primers introduced restriction sites (Table 1) upstream of the start codon and downstream of the stop codon, respectively, facilitating the ligation of the digested PCR products into the corresponding sites of the pET28a+ (Novagen) expression vector using T4 DNA ligase (Fermentas). Ligation products were transformed into E. coli DH5a cells (NEB). […]

The target in test [7] is T7, Escherichia coli malate dehydrogenase Ec-Mdh variant R81A, SEQ ID No. 102 (Escherichia coli, UniProt P61889, R81A).
T7 sequence (P61889 with tags, fused parts or gaps R81A): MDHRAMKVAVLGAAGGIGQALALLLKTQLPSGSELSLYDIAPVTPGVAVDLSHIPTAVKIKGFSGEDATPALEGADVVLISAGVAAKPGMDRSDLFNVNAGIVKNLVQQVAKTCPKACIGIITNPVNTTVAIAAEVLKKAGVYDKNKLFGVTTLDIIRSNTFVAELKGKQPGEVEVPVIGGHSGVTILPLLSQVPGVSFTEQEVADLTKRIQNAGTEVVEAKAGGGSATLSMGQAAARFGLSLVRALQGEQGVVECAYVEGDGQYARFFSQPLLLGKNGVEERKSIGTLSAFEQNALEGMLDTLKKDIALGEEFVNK
As to the kind of experiment: OHB/oxaloacetate reductase assay, Ec-Mdh R81A. As to conditions: pH 7, 37° C. How it is done:
as §1, §2, §3

Test [8] has as its target T8, Escherichia coli malate dehydrogenase Ec-Mdh variant R81A M85Q, SEQ ID No. 104 (Escherichia coli, UniProt P61889, M85Q/R81A).
T8 sequence (P61889 1-312 R81A/M85Q): T1 sequence (P61889 1-312 I12V/R81A) with V12I, M85Q
Put plainly: OHB/oxaloacetate reductase assay, Ec-Mdh R81A M85Q. Conditions: pH 7, 37° C. The method, then:
as §1, §2, §3

Test [9] addresses T9, Escherichia coli malate dehydrogenase Ec-Mdh variant R81A M85Q I12V, SEQ ID No. 108 (Escherichia coli, UniProt P61889, I12V/M85Q/R81A).
T9 sequence (P61889 1-312 I12V/R81A/M85Q): T1 sequence (P61889 1-312 I12V/R81A) with M85Q
As to the kind of experiment: OHB/oxaloacetate reductase assay, Ec-Mdh R81A M85Q I12V. Conditions: up to 0.5 mM oxaloacetate; pH 7, 37° C.; read-out: Km (OAA). How it is done:
as §1, §2, §3

Where [10] appears, read: up to 50 mM OHB, read-out: Km (OHB).
Setting [11] is: up to 0.5 mM oxaloacetate, read-out: Km (OAA).

SMILES strings stand for the structures. Where a chain is given by its changes, count along the chain named. Read-outs that look alike come from different tables or passages of the source.

As to `O=C(O)C(=O)CCO` [OHB, 2-oxo-4-hydroxybutyrate], the Km in test [1] (setting [10]), in test [2] (setting [10]), in test [3] (setting [10]), in test [4] (setting [10]), in [5] (setting [10]) and in test [6] was above 50 mM throughout. In addition, the Km in test [7] (setting [10]) and in test [8] (setting [10]) was above 50 mM in each case.
Turning to `O=C(O)CC(=O)C(=O)O` [oxaloacetate, reference compound], the Km in [1] (setting [11]), in [9], in [2] (setting [11]), in [3] (setting [11]), in test [4] (setting [11]) and in [5] (setting [11]) was above 0.5 mM each time. The Km in test [7] (setting [11]) and in test [8] (setting [11]) was above 0.5 mM in each case.

The values are drawn from patent US11505811B2, “Method for the preparation of 2,4-dihydroxybutyrate” (ADISSEO FRANCE S.A.S., priority 2012, dated 2022).
